Results taken from patent US20220387411A1, “TARGETED AUTOPHAGY CONJUGATES AND METHODS” (Frontier Medicines Corporation, priority 2019, published 2022).

target: T1, Recombinant pure human SQSTM1 protein (Homo sapiens, UniProt Q13501); assay: Inhibition of IA-Rhodamine labeling of SQSTM1 (gel-based, densitometry); type: binding; settings: 50 μM of test compound (initial screen); 30 min at 37° C., then 100 nM IA-Rhodamine 1 hour; inhibition of target labeling by densitometry
T1 construct: purchased Origene
T1 sequence (Q13501 whole entry): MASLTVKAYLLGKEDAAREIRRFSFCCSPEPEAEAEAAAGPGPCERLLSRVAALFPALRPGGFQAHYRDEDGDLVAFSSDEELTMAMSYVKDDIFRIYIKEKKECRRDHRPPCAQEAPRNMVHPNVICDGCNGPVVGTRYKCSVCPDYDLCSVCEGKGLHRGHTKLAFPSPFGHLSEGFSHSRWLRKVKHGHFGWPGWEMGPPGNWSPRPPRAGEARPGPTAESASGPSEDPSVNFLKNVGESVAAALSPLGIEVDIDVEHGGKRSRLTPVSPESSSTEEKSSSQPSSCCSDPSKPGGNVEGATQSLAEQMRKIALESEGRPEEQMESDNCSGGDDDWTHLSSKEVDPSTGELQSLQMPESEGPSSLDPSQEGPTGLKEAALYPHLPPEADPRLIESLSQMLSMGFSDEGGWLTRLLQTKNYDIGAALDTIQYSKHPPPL
Protocol: Recombinant pure human SQSTM1 protein was purchased from Origene. SQSTM1 protein (0.21 μg) was diluted into 50 μL of PBS and 1 μL of either DMSO (vehicle) or covalently acting small molecule (test compound) to achieve the desired concentration. After 30 min. at 37° C., the samples were treated with 100 nM IA-Rhodamine (tetramethylrhodamine-5-iodoacetamide dihydroiodide; Setareh Biotech, 6222, prepared in anhydrous DMSO) for 1 hour at room temperature. Samples were then diluted with 20 μL of 4× reducing Laemmli SDS sample loading buffer (Alfa Aesar) and heated at 90° C. for 5 min. The samples were separated on precast 4-20% Criterion TGX gels (Bio-Rad Laboratories, Inc.). Fluorescent imaging was performed on a ChemiDoc MP instrument (Bio-Rad Laboratories, Inc.), and inhibition of target labeling was assessed by densitometry using ImageJ software. The initial screen was performed using 50 μM of test compound.

Q: Which inhibition at 50 µM does the source give for `O=C(CCl)N(Cc1ccccc1)C1CCCC[C@H]1CO` (stereo in doubt) [Compound 3, N-benzyl-2-chloro-N-(cis-2-(hydroxymethyl)cyclohexyl)acetamide] here?
A: Its inhibition at 50 µM is 58%.

Q: With `O=C(CCl)N(Cc1ccccc1)C1CCCCC1` [Compound 2, N-benzyl-2-chloro-N-cyclohexylacetamide] as the compound, how does the inhibition at 50 µM read?
A: The inhibition at 50 µM was 50%.

Q: With `O=C(CCl)N(Cc1ccccc1)[C@H]1CCC[C@@H]1O` [Compound 4, N-benzyl-2-chloro-N-((1S,2S)-2-hydroxycyclopentyl)acetamide] as the compound, how does the inhibition at 50 µM read?
A: The inhibition at 50 µM was 18%.

Q: How did the “% inhibition” value turn out when `O=C(CCl)N(Cc1ccccc1)[C@H]1COC[C@@H]1O` [Compound 5, N-benzyl-2-chloro-N-((3S,4R)-4-hydroxytetrahydrofuran-3-yl)acetamide] was run?
A: Its value is 25%.

Q: Which inhibition at 50 µM does the source give for `CC(C)(C)OC(=O)N1CCC(N(C(=O)CCl)C2CC2)CC1` [Compound 6, Tert-butyl 4-(2-chloro-N-cyclopropylacetamido)piperidine-1-carboxylate] here?
A: The inhibition at 50 µM was 56%.

Q: `CC(C)(C)OC(=O)N1CCC(N(C(=O)CCl)C2CCOCC2)CC1` [Compound 7, Tert-butyl 4-(2-chloro-N-(tetrahydro-2H-pyran-4-yl)acetamido)piperidine-1-carboxylate] was tested. Which inhibition at 50 µM did it give?
A: The inhibition at 50 µM was 61%.

Q: `CC(C)N(C(=O)CCl)C1CCCN(C(=O)OC(C)(C)C)CC1` (stereo not drawn) [Compound 8, Tert-butyl 4-(2-chloro-N-isopropylacetamido)azepane-1-carboxylate] was tested. Which inhibition at 50 µM did it give?
A: The inhibition at 50 µM was 50%.

Q: How did the inhibition at 50 µM turn out when `COC(=O)c1ccc(CN(C(=O)CCl)C2CCN(C(=O)OC(C)(C)C)CC2)[nH]1` [Compound 9, Tert-butyl 4-(2-chloro-N-((5-(methoxycarbonyl)-1H-pyrrol-2-yl)methyl)acetamido) piperidine-1-carboxylate] was run?
A: Its inhibition at 50 µM is 64%.

Q: With `O=C(CCl)N(Cc1ccccc1)[C@H]1COC[C@@H]1O` [Compound 10, N-benzyl-2-chloro-N-[(3S,4R)-4-hydroxytetrahydrofuran-3-yl]acetamide] as the compound, how does the inhibition at 50 µM read?
A: The inhibition at 50 µM was 17%.

Q: `O=C1CC(N(Cc2ccccc2)C(=O)CCl)CN1Cc1ccccc1` (stereo not drawn) [Compound 11, N-benzyl-N-(1-benzyl-5-oxo-pyrrolidin-3-yl)-2-chloro-acetamide] was tested. Which inhibition at 50 µM did it give?
A: The inhibition at 50 µM was 57%.

Q: With `C[C@H]1CN(C(=O)OC(C)(C)C)CCCN1C(=O)CCl` [Compound 12, (S)-tert-butyl 4-(2-chloroacetyl)-3-methyl-1,4-diazepane-1-carboxylate] as the compound, how does the “% inhibition” value read?
A: The value was “not active”.

Q: `CC1CCCCCN1C(=O)CCl` (stereo not drawn) [Compound 13, 2-chloro-1-(2-methylazepan-1-yl)ethan-1-one] was tested. Which inhibition at 50 µM did it give?
A: The inhibition at 50 µM was 49%.

Q: For `CCN1CCCN(C(=O)CCl)CC1` [Compound 14, 2-chloro-1-(4-ethyl-1,4-diazepan-1-yl)ethan-1-one], which inhibition at 50 µM is on record?
A: The inhibition at 50 µM was 38%.

Q: `O=C(CCl)N1CCCC(O)CC1` (stereo not drawn) [Compound 15, 2-chloro-1-(4-hydroxyazepan-1-yl)ethan-1-one] was tested. Which inhibition at 50 µM did it give?
A: Its inhibition at 50 µM is 29%.

Q: How did the inhibition at 50 µM turn out when `O=C(CCl)N1CCCN(c2ccc(F)cn2)CC1` [Compound 16, 2-chloro-1-(4-(5-fluoropyridin-2-yl)-1,4-diazepan-1-yl)ethanone] was run?
A: The inhibition at 50 µM was 20%.

Q: With `COC(=O)N1CCCN(C(=O)CCl)CC1` [Compound 17, Methyl 4-(2-chloroacetyl)-1,4-diazepane-1-carboxylate] as the compound, how does the inhibition at 50 µM read?
A: The inhibition at 50 µM was 9%.

Q: `CC(C)(C)OC(=O)N1CCN(C(=O)CCl)CC(O)C1` (stereo not drawn) [Compound 18, Tert-butyl 4-(2-chloroacetyl)-6-hydroxy-1,4-diazepane-1-carboxylate] was tested. Which inhibition at 50 µM did it give?
A: Its inhibition at 50 µM is 21%.

Q: With `O=C(CCl)N1CCCC(F)CC1` (stereo not drawn) [Compound 20, 2-chloro-1-(4-fluoroazepan-1-yl)ethanone] as the compound, how does the inhibition at 50 µM read?
A: The inhibition at 50 µM was 9%.

Q: `CC1CCCN(C(=O)CCl)CC1` (stereo not drawn) [Compound 21, 2-chloro-1-(4-methylazepan-1-yl)ethanone] was tested. Which inhibition at 50 µM did it give?
A: Its inhibition at 50 µM is 11%.

Q: For `CC1CN(C(=O)CCl)CCCO1` (stereo not drawn) [Compound 22, 2-chloro-1-(2-methyl-1,4-oxazepan-4-yl)ethanone], which “% inhibition” value is on record?
A: Its value is “not active”.

Q: Which inhibition at 50 µM does the source give for `CC1(C)CCCN(C(=O)CCl)CC1` [Compound 23, 2-chloro-1-(4,4-dimethylazepan-1-yl)ethanone] here?
A: The inhibition at 50 µM was 21%.

Q: How did the “% inhibition” value turn out when `O=C(CCl)N1CCC(F)C(O)(C(F)(F)F)CC1` (stereo not drawn) [Compound 24, 2-chloro-1-(5-fluoro-4-hydroxy-4-(trifluoromethyl)azepan-1-yl)ethanone] was run?
A: Its value is “not active”.

Q: How did the inhibition at 50 µM turn out when `CCOC(=O)C1(C)CCCCN(C(=O)CCl)C1` (stereo not drawn) [Compound 25, Ethyl 1-(2-chloroacetyl)-3-methylazepane-3-carboxylate] was run?
A: Its inhibition at 50 µM is 31%.

Q: Which inhibition at 50 µM does the source give for `CC1(CNC(=O)OCc2ccccc2)CCCCN(C(=O)CCl)C1` (stereo not drawn) [Compound 26, Benzyl ((1-(2-chloroacetyl)-3-methylazepan-3-yl)methyl)carbamate] here?
A: The inhibition at 50 µM was 70%.

Q: Which inhibition at 50 µM does the source give for `O=C(NCC1CCCCN(C(=O)CCl)C1)OCc1ccccc1` (stereo not drawn) [Compound 27, Benzyl ((1-(2-chloroacetyl)azepan-3-yl)methyl)carbamate] here?
A: Its inhibition at 50 µM is 58%.

Q: Which inhibition at 50 µM does the source give for `CC1CN(C(=O)CCl)CCCC1CNC(=O)OCc1ccccc1` (stereo not drawn) [Compound 28, Benzyl ((1-(2-chloroacetyl)-3-methylazepan-4-yl)methyl)carbamate] here?
A: Its inhibition at 50 µM is 59%.

Q: For `CC1(F)CCCCN(C(=O)CCl)C1` (stereo not drawn) [Compound 29, 2-chloro-1-(3-fluoro-3-methylazepan-1-yl)ethanone], which inhibition at 50 µM is on record?
A: Its inhibition at 50 µM is 38%.

Q: With `O=C(NCC1(O)CCCCN(C(=O)CCl)C1)OCc1ccccc1` (stereo not drawn) [Compound 30, Benzyl ((1-(2-chloroacetyl)-3-hydroxyazepan-3-yl)methyl)carbamate] as the compound, how does the inhibition at 50 µM read?
A: The inhibition at 50 µM was 50%.

Q: For `CC1CCCCN(C(=O)CCl)C1` (stereo not drawn) [Compound 31, 2-chloro-1-(3-methylazepan-1-yl)ethanone], which inhibition at 50 µM is on record?
A: The inhibition at 50 µM was 39%.

Q: How did the inhibition at 50 µM turn out when `O=C(CCl)N1CCCCC(O)(CF)C1` (stereo not drawn) [Compound 32, 2-chloro-1-(3-(fluoromethyl)-3-hydroxyazepan-1-yl)ethanone] was run?
A: The inhibition at 50 µM was 17%.

Q: For `O=C(CCl)N1CCCC(O)(C(F)(F)F)CC1` (stereo not drawn) [Compound 33, 2-chloro-1-(4-hydroxy-4-(trifluoromethyl)azepan-1-yl)ethanone], which inhibition at 50 µM is on record?
A: Its inhibition at 50 µM is 32%.

Q: For `O=C(NCC1(O)CCCN(C(=O)CCl)CC1)OCc1ccccc1` (stereo not drawn) [Compound 34, Benzyl ((1-(2-chloroacetyl)-4-hydroxyazepan-4-yl)methyl)carbamate], which inhibition at 50 µM is on record?
A: Its inhibition at 50 µM is 14%.

Q: How did the inhibition at 50 µM turn out when `CC1(CNC(=O)OCc2ccccc2)CCCN(C(=O)CCl)CC1` (stereo not drawn) [Compound 35, Benzyl ((1-(2-chloroacetyl)-4-methylazepan-4-yl)methyl)carbamate] was run?
A: Its inhibition at 50 µM is 17%.

Q: `CC1(F)CCCN(C(=O)CCl)CC1` (stereo not drawn) [Compound 36, 2-chloro-1-(4-fluoro-4-methylazepan-1-yl)ethanone] was tested. Which inhibition at 50 µM did it give?
A: The inhibition at 50 µM was 34%.

Q: For `CC(C)(C)OC(=O)NC1CCCCN(C(=O)CCl)C1` (stereo not drawn) [Compound 37, Tert-butyl (1-(2-chloroacetyl)azepan-3-yl)carbamate], which inhibition at 50 µM is on record?
A: Its inhibition at 50 µM is 30%.

Q: With `O=C(NCC1(F)CCCN(C(=O)CCl)CC1)OCc1ccccc1` (stereo not drawn) [Compound 38, Benzyl ((1-(2-chloroacetyl)-4-fluoroazepan-4-yl)methyl)carbamate] as the compound, how does the inhibition at 50 µM read?
A: Its inhibition at 50 µM is 40%.

Q: With `CC1(O)CCCCN(C(=O)CCl)C1` (stereo not drawn) [Compound 39, 2-chloro-1-(3-hydroxy-3-methylazepan-1-yl)ethanone] as the compound, how does the inhibition at 50 µM read?
A: The inhibition at 50 µM was 20%.

Q: `CC1CCN(C(=O)CCl)CCC1(F)F` (stereo not drawn) [Compound 40, 2-chloro-1-(4,4-difluoro-5-methylazepan-1-yl)ethanone] was tested. Which “% inhibition” value did it give?
A: Its value is “not active”.

Q: With `CC1CCN(C(=O)CCl)CCC1CNC(=O)OCc1ccccc1` (stereo not drawn) [Compound 41, Benzyl ((1-(2-chloroacetyl)-5-methylazepan-4-yl)methyl)carbamate] as the compound, how does the inhibition at 50 µM read?
A: The inhibition at 50 µM was 54%.

Q: How did the inhibition at 50 µM turn out when `CC1CCN(C(=O)CCl)CCC1=O` (stereo not drawn) [Compound 42, 1-(2-chloroacetyl)-5-methylazepan-4-one] was run?
A: The inhibition at 50 µM was 32%.

Q: `O=C(CCl)N1CCC(F)C(F)(F)CC1` (stereo not drawn) [Compound 43, 2-chloro-1-(4,4,5-trifluoroazepan-1-yl)ethanone] was tested. Which inhibition at 50 µM did it give?
A: Its inhibition at 50 µM is 25%.

Q: With `O=C(CCl)N1CCCCC(O)C1` (stereo not drawn) [Compound 44, 2-chloro-1-(3-hydroxyazepan-1-yl)ethanone] as the compound, how does the inhibition at 50 µM read?
A: Its inhibition at 50 µM is 13%.

Q: With `CC1CCN(C(=O)CCl)CCC1O` (stereo not drawn) [Compound 45, 2-chloro-1-(4-hydroxy-5-methylazepan-1-yl)ethanone] as the compound, how does the “% inhibition” value read?
A: Its value is “not active”.

Q: How did the inhibition at 50 µM turn out when `O=C(NC1CCCN(C(=O)CCl)CC1)OCc1ccccc1` (stereo not drawn) [Compound 46, Benzyl (1-(2-chloroacetyl)azepan-4-yl)carbamate] was run?
A: Its inhibition at 50 µM is 31%.

Q: How did the inhibition at 50 µM turn out when `O=C1CCN(C(=O)CCl)CCC1F` (stereo not drawn) [Compound 47, 1-(2-chloroacetyl)-5-fluoroazepan-4-one] was run?
A: The inhibition at 50 µM was 36%.

Q: How did the inhibition at 50 µM turn out when `O=C(CCl)N1CCC(O)C(F)CC1` (stereo not drawn) [Compound 48, 2-chloro-1-(4-fluoro-5-hydroxyazepan-1-yl)ethanone] was run?
A: Its inhibition at 50 µM is 7%.

Q: Which inhibition at 50 µM does the source give for `CC1(O)CCCN(C(=O)CCl)CC1` (stereo not drawn) [Compound 49, 2-chloro-1-(4-hydroxy-4-methylazepan-1-yl)ethanone] here?
A: Its inhibition at 50 µM is 9%.

Q: `O=C(CCl)N1CCOCC(F)(F)C1` [Compound 50, 2-chloro-1-(6,6-difluoro-1,4-oxazepan-4-yl)ethanone] was tested. Which inhibition at 50 µM did it give?
A: Its inhibition at 50 µM is 17%.

Q: `O=C(CCl)N1CCCSCC1` [Compound 51, 2-chloro-1-(1,4-thiazepan-4-yl)ethanone] was tested. Which inhibition at 50 µM did it give?
A: The inhibition at 50 µM was 33%.

Q: How did the inhibition at 50 µM turn out when `O=C(CCl)N1CCCS(=O)(=O)CC1` [Compound 52, 2-chloro-1-(1,1-dioxido-1,4-thiazepan-4-yl)ethanone] was run?
A: The inhibition at 50 µM was 40%.

Q: With `CCOC(=O)c1ncn2c1CN(C(=O)CCl)CCC2` [Compound 53, Ethyl 8-(2-chloroacetyl)-6,7,8,9-tetrahydro-5H-imidazo[1,5-a][1,4]diazepine-1-carboxylate] as the compound, how does the inhibition at 50 µM read?
A: Its inhibition at 50 µM is 52%.
